From patent publication US20090118282A1, “Compounds and methods for treatment of amyloid-beta-peptide related disorders” (priority 2005, published 2009)
Counter-ions that a name gives are not always drawn.

Test system: Aβ 40 production in HEK-293 cells overexpressing swAPP751
Experiment: Inhibition of Aβ 40 production in HEK-293 cells overexpressing swAPP751 (sandwich ELISA)
Format: cell-based
Conditions: Homo sapiens, HEK293, 7 hours incubation
Description: An exemplary assay for the analysis of inhibition of beta-secretase activity utilizes the human embryonic kidney cell line HEK-293 (ATCC Accession No. CRL-1573) stably transfected with APP751 containing the naturally occurring double mutation […] to Asn651Leu652 (numbered for APP751), commonly called the “Swedish mutation” and shown to overproduce Aβ 40 and Aβ 42 (Citron et. al., 1992, Nature 360:672-674). The cells were plated in 10 cm plates and in Dulbecco's Modified Eagle's medium (DMEM, Sigma D-6546) containing 10% fetal bovine serum. After cells are established (3 days post plating), cells are incubated in the presence/absence of the inhibitory compound (diluted in DMSO) at the desired concentration, generally from 0.2 to 20 μM, and with a final concentration of DMSO of 0.1%. Cells were incubated for 7 hours in the presence of phosphoramidon (1 μM) (Sigma). Media and cell lysates were collected, centrifuged, normalized to total protein and assayed for Aβ 40 and Aβ 42 by sandwich ELISA according to the manufacturer's instructions (Biosource International). For Aβ 42 detection, samples are concentrated on YM3 Microcon columns (Millipore). […] Aβ levels are determined by the difference between the Aβ values for the compound treatment and baseline periods. Dose response curves are plotted as percent inhibition versus compound concentration.

Work on `Clc1ccc2c(OCCCCCOc3ccc(CN4CCOCC4)cc3)ccnc2c1` [Compound 23, 4-(5-(4-(morpholinomethyl)phenoxy)pentyloxy)-7-chloroquinoline dihydrochloride] yielded an IC50 of 2.5 µM.
Molecule `CCOC(=O)[C@H](Cc1ccc(OCCCCCSc2ccnc3cc(C(F)(F)F)ccc23)cc1)NC(C)=O` [Compound 14, (S)-ethyl 3-(4-(5-(7-(trifluoromethyl)quinolin-4-ylthio)pentyloxy)phenyl)-2-acetamidopropanoate hydrochloride] has an IC50 of 0.72 µM.
`FC(F)(F)c1ccc2c(SCCCCCOc3ccc(CN4CCCCC4)cc3)ccnc2c1` [Compound 5, 4-(5-(4-((piperidin-1-yl)methyl)phenoxy)pentylthio)-7-(trifluoromethyl)quinoline dihydrochloride] showed an IC50 of 5.16 µM.
For `CCN(CC)C(=O)N1CCN(Cc2ccc(OCCCCCSc3ccnc4cc(C(F)(F)F)ccc34)cc2)CC1` [Compound 2, 4-((4-(5-(7-(trifluoromethyl)quinolin-4-ylthio)pentyloxy)phenyl)methyl)-N,N-diethylpiperazine-1-carboxamide dihydrochloride], the IC50 was 2.4 µM.
Work on `CCn1ncc2c(OCCCCCSc3ccnc4cc(C(F)(F)F)ccc34)ccnc21` [Compound 19, 4-(5-(1-Ethyl-1H-pyrazolo[3,4-b]pyridin-4-yloxy)pentylthio)-7-(trifluoromethyl)quinoline dihydrochloride] yielded an IC50 of 15.5 µM.
For `CC(C)(C)C(=O)N1CCN(Cc2ccc(OCCCCCSc3ccnc4cc(C(F)(F)F)ccc34)cc2)CC1` [Compound 3, 1-(4-((4-(5-(7-(trifluoromethyl)quinolin-4-ylthio)pentyloxy)phenyl)methyl)piperazin-1-yl)-2,2-dimethylpropan-1-one dihydrochloride], the IC50 was 1.9 µM.
In the case of `O=[N+]([O-])c1cc(CN2CCCCC2)ccc1OCCCCCSc1ccnc2cc(C(F)(F)F)ccc12` [Compound 11, 4-(5-(2-nitro-4-((piperidin-1-yl)methyl)phenoxy)pentylthio)-7-(trifluoromethyl)quinoline dihydrochloride], the IC50 is reported as 2.45 µM.
`Nc1cc(CN2CCCCC2)ccc1OCCCCCSc1ccnc2cc(C(F)(F)F)ccc12` [Compound 13, 2-(5-(7-(Trifluoromethyl)quinolin-4-ylthio)pentyloxy)-5-((piperidin-1-yl)methyl)benzenamine trihydrochloride] was tested, and the IC50 was 8.26 µM.
Molecule `FC(F)(F)c1ccc2c(SCCCCCOc3ccc(CN4CCNCC4)cc3)ccnc2c1` [Compound 1, 4-(5-(4-((piperazin-1-yl)methyl)phenoxy)pentylthio)-7-(trifluoromethyl)quinoline trihydrochloride] has an IC50 of 11.6 µM.
`FC(F)(F)c1ccc2c(SCCCCCOc3ccc(CN4CCCCC4)cc3Cl)ccnc2c1` [Compound 10, 4-(5-(2-Chloro-4-((piperidin-1-yl)methyl)phenoxy)pentylthio)-7-(trifluoromethyl)quinoline dihydrochloride] was tested, and the IC50 was 8.5 µM.
Work on `FC(F)(F)c1ccc2c(SCCCCCOc3ccc(CN4CCOCC4)cc3)ccnc2c1` [Compound 8, 4-(5-(4-(morpholinomethyl)phenoxy)pentylthio)-7-(trifluoromethyl)quinoline dihydrochloride] yielded an IC50 of 5.13 µM.
`COc1cc(CN2CCOCC2)ccc1OCCCCCOc1ccnc2cc(Cl)ccc12` [Compound 22, 4-(5-(2-Methoxy-4-(morpholinomethyl)phenoxy)pentyloxy)-7-chloroquinoline dihydrochloride] showed an IC50 of 9.3 µM.
`OCc1ccc(OCCCCCSc2ccnc3cc(C(F)(F)F)ccc23)cc1` [Compound 12, (4-(5-(7-(trifluoromethyl)quinolin-4-ylthio)pentyloxy)phenyl)methanol hydrochloride] was tested, and the IC50 was 7.3 µM.
`COc1cc(CN2CCOCC2)ccc1OCCCCCSc1ccnc2cc(C(F)(F)F)ccc12` [Compound 24, 4-(5-(2-methoxy-4-(morpholinomethyl)phenoxy)pentylthio)-7-(trifluoromethyl)quinoline dihydrochloride] gave an IC50 of 9.9 µM.
